Assay results from patent US20060211606A1, “Peptides” (priority 2005, published 2006).
Where no end group is shown, it is not given here. [ ]: non-standard residue; d: D form.

Tested on: Human Skeletal Muscle Myoblasts (HSMM)
Experiment: HSMM proliferation, BrdU incorporation
Assay type: cell-based
Conditions: 48 hours
Procedure: (A) Peptide A5: HSMM cells at 500 cells/well. Cultivation was carried out for 24 hours in 10% FCS, followed by two washes in serum free medium, stimulation for 48 hours and then treatment with BrdU for 5 hours. Concentrations of 0.1, 1, 10, 100 and 500 ng/ml of peptide A5 were tested, along with 0.1, 1, 10 and 100 ng/ml IGF-I. BrdU incorporation was measured to assess the level of cell proliferation achieved. Controls containing medium only, no cells (BLK), background staining (BG) and 10% FBS were also provided. Values on the Y-axis are for fluorescence (absorbence at 370 nm; mean plus standard error across 4 wells). The first five columns relate to peptide A5 at concentrations of 0.1, 1, 10, 100 and 500 ng/ml. The next column relates to the control containing medium only. The next three relate to IGF-I (See Example 1.5) alone at concentrations of 100, 10 and 0.1 ng/ml. The next three relate to controls containing 10% FBS, background staining and no cells respectively. * means P<0.05 compared to medium only control.
(§1) (B) Peptide AS: HSMM cells at 500 cells/well. […] Concentrations of 0.1, 1, 10, 100 and 500 ng/ml of peptide AS in combination with 2 ng/ml IGF-I were tested, along with 0.1, 1, 10 and 100 ng/ml IGF-I. BrdU incorporation was measured to assess the level of cell proliferation achieved. […] Values on the Y-axis are for fluorescence (absorbence at 370 nm; mean plus standard error across 4 wells). […]
as §1, with “(A)” for “(B)”, “AS” for “AS in combination with 2 ng/ml IGF-I”
(B) Peptide A5: HSMM cells at 500 cells/well. […] Concentrations of 0.1, 1, 10, 100 and 500 ng/ml of peptide AS in combination with 2 ng/ml IGF-I were tested, along with 0.1, 1, 10 and 100 ng/ml IGF-I. BrdU incorporation was measured to assess the level of cell proliferation achieved. […]

A5: SEQ ID NO: 15 with D-Arginine at positions 14 and 15, amidated at the C-terminus, not pegylated (YQPPSTNKNTKSQ[dR][dR]KGSTFEEHK-NH2; N-terminus assumed; SMILES C[C@@H](O)[C@H](NC(=O)[C@H](CO)NC(=O)CNC(=O)[C@H](CCCCN)NC(=O)[C@@H](CCCNC(=N)N)NC(=O)[C@@H](CCCNC(=N)N)NC(=O)[C@H](CCC(N)=O)NC(=O)[C@H](CO)NC(=O)[C@H](CCCCN)NC(=O)[C@@H](NC(=O)[C@H](CC(N)=O)NC(=O)[C@H](CCCCN)NC(=O)[C@H](CC(N)=O)NC(=O)[C@@H](NC(=O)[C@H](CO)NC(=O)[C@@H]1CCCN1C(=O)[C@@H]1CCCN1C(=O)[C@H](CCC(N)=O)NC(=O)[C@@H](N)Cc1ccc(O)cc1)[C@@H](C)O)[C@@H](C)O)C(=O)N[C@@H](Cc1ccccc1)C(=O)N[C@@H](CCC(=O)O)C(=O)N[C@@H](CCC(=O)O)C(=O)N[C@@H](Cc1c[nH]cn1)C(=O)N[C@@H](CCCCN)C(N)=O) [Peptide A5]
proliferation of HSMM (BrdU incorporation), with 2 ng/ml IGF-I in the medium (A5 in combination with 2 ng/ml IGF-I, P<0.001): significant effect on the proliferation of HSMM at a higher confidence level
proliferation of HSMM (BrdU incorporation), used in isolation (A5 significant (P<0.1) at doses of 10 ng/ml and below, IGF-I alone 0.1, 10 and 100 ng/ml): significant effect
